# In patent US7416876B2, “N-carbobenzyloxy (N-CBZ)-deprotecting enzyme” (Bristol-Meyers Squibb Company, priority 2001, dated 2008):
# B1: CBZ-deprotecting enzyme: enzyme purified from Sphingomonas paucimobilis ATCC 202027 that removes CBZ from protected amines and alcohols; SEQ ID NO:2 (protein, listed as Sphingomonas paucimobilis)
# chain: MVQPTPTPQSELPGLIARDMEGLMTLYRDLHANPELSLQEVNTAAKLAKRLKAMKFDVTEKVGGTGVVAVMKNGSGPVLLIRADMDGLPVVEQTGLDFASKVRTKTPEGVETGVMHACGHDTHMTAFIETAKLLSSQKDKWKGTLVMILQPAEEVGKGARDMLEDGLYTRFPRPTHAIAFHDAANLQAGVVGYTPGYALANVDSVDIVVKGLGGHGAYPQTTRDPIVLGSRIVTSLQTLVSREQDPQDPAVVTVGSFQAGAKHNIIPDQALLLLTVRSYSDETRAKLIKGIERIARGEAIAAGVPDDKMPVVSVKDEFTPSTYNPPEFAEQMGALLKGHFAEGRVVKTPAVMGGEDFGRFYRADKSINSFIFWVGGVPADKMAAAQAGQITLPSLHSPFWAPEADKVIATASEAMTVLAMDILKKD
# Legend:
# [1] = system: CBZ-deprotecting enzyme (cell extracts of Sphingomonas paucimobilis ATCC 202027); assay: CBZ-deprotection using cell extract; type: biochemical; details: 42° C., 18-20 hours, HPLC
# Protocol: (§1) HPLC analysis was performed using a Hewlett-Packard (HP) 1090 instrument with a Vydac C-18 reverse phase column. The mobile phase solvent A containing 0.1% trifluoroacetic acid (TFA) in water and solvent B containing 0.1% TFA in 70% acetonitrile: 30% water. The following gradient of solvent A and B was used for the separation of substrates and products:
# (§2) 0-15 min: 50% B,15-25 min: 100% B, 25-26 min: 0% B, and 26-30 min: 0% B. The flow rate was 1 mL/min. The column temperature was ambient, and the detection wavelength was at 215 nm. Under these conditions, the retention times for Compound A, Compound B, CBZ-L-Phenylalanine and L-Phenylalanine are 15.48 min., 7.28 min., 16.99 min. and 7.35 min., respectively. All other CBZ-containing compounds were also analyzed using these conditions.
# Preparation of cell extracts were carried out at 4-7° C. Cells were washed with 50 mM potassium phosphate buffer, pH 7.0, and the washed cells (100 g) were suspended in 500 mL of buffer A (50 mM phosphate buffer, pH 7.0 containing 10% glycerol, and 2 mM DTT). To the cell suspensions, 1 mM phenylmethylsulfonyl fluoride (PMSF) solution in isopropanol was added. Cell suspensions (20% W/V, wet cells) were passed through a Microfluidizer (Microfluidics, Inc) at 12,000 psi (two passages) and disintegrated cells were centrifuged at 25,000×g for 30 min at 4° C. The supernatant solution obtained after centrifugation is referred to as cell extract.
# The cell extracts was used in deprotecting the CBZ-group from various compounds. It was useful in deprotecting CBZ-groups in various processes. Various D and L-CBZ-protected amino acids were incubated with the cell extract at 42° C. for 18 -20 hours. The reactions were stopped by addition of 2 volumes of 50% acetonitrile containing 0.4% trifluro acetic acid (TFA). The results shown in table 2 indicate that the enzyme is specific in hydrolyzing the CBZ-group from CBZ-protected L-amino acids.
# [2] = system: recombinant N-CBZ-deprotecting enzyme; assay: Deprotection with recombinant enzyme (cell extract from E. coli BL21 (DE3)(pBMS2000-cbz)); type: biochemical, Sphingomonas paucimobilis; details: 0.5 mg substrate, 0.5 ml cell extract, 28° C., 1 hr, HPLC
# Protocol: The reaction contained 0.5 mg of CBZ-L-phe and 0.5 ml of cell extract from E. coli BL21 (DE3)(pBMS2000-cbz) that expressed the deprotecting enzyme. Preparation of cell extract was as follows: 2 g of recombinant cells were suspended in 10 mL buffer A (50 mM phosphate buffer, pH 7.5, 1 mM EDTA), sonicated for 2 minutes (20 seconds pulse on and 30 seconds pulse off) using a model 550 Sonic Dismembrator from Misonix Inc., Farmingdale, N.Y. The disintegrated cells were centrifuged for 15 min at 8000 rpm at 4° C. and the resulting supernatant, referred to as a cell extract, was used for these studies. The reactions were carried out in a culture tube at 28° C. After 1 hr, samples were quenched with 1 ml of acetonitrile and analyzed by HPLC (described earlier).
# [3] = system: Sphingomonas paucimobilis; assay: Biotransformation (CBZ deprotection) using whole cells; type: cell-based; details: whole cells grown in medium B with 25 mg substrate, 28° C., 48 hours, HPLC
# Protocol: In this process, the Sphingomonas paucimobilis was grown in 25 mL of medium B containing 25 mg of substrate (Compound A or CBZ-L-Phenylalanine) in a 250-mL flask. The flask was incubated at 28° C. and 250 rpm on a shaker. After 48 hours of biotransformation, the cells were removed by centrifugation. The supernatant containing the product [4S-(4α,7α,10aβ)]-Octahydro-5-oxo-4-amino-7H-pyrido-[2,1-b] [1,3]thiazepine-7-carboxylic acid, methyl ester (Compound B) or L-Phenylalanine was analyzed by HPLC.
# as §1, §2
# CBZ-deprotecting enzyme = assay: Deprotection of CBZ-containing compounds with purified CBZ-deprotecting enzyme; type: biochemical, Sphingomonas paucimobilis; details: for % Conversion: purified enzyme
# Protocol: Compound A or CBZ-phenylalanine at 0.5mg was incubated with 0.4 mL of cell extract/fractions in 50 mM phosphate buffer, pH 7 at 45° C. for 18 hours. The reaction is stopped by the addition 1 ml of 50% acetonitrile containing 0.4% TFA. The samples were filtered and analyzed by HPLC for product and starting material. All the purification steps were carried out at room temperature. The purification of the enzyme was carried out using CBZ-L-phenylalanine as the substrate. The cell extract, prepared as above, was batch adsorbed with DEAE-cellulose (pre-equilibrated with buffer A) for 2 hours. The follow-through, which contained the active enzyme, was precipitated with ammonium sulfate (516 g/L) with constant stirring for 2 hours. The resulting precipitate obtained by centrifugation (15,000 rpm at 4° C.) was solubilized in buffer A containing 1M ammonium sulfate, loaded on to phenylsepharose (20 mL column which was pre-equlibriaiated with buffer A containing 1M ammonium sulfate). The column was sequentially washed with the buffer A containing 1M ammonium sulfate, 0.5M ammonium sulfate and 0.2M ammonium sulfate. Finally, the enzyme was eluted with buffer A. The fractions containing active enzyme were pooled (30 mL) and concentrated with Amicon PM-10 membrane (8 mL). The enzyme was then loaded on to S-200 gel-filtration column (400 mL column). The enzyme was eluted with buffer A with a flow rate of 0.8 mL/min. With these steps the enzyme was purified more than 150-fold with a specific activity of 13.9 units/mg protein (table 3). The unit is defined as μmole of product formed/min/mg of protein. The enzyme is a […] protein with a molecular weight of 154,000 daltons with a subunit molecular weight of 45,000 daltons, as determined by SDS-PAGE. The purified enzyme prepared as described in this section has been used to deprotect CBZ-containing compounds as shown in table 4.
Molecule,% Conversion [1] [%],other results
"O=C(N[C@@H](Cc1ccccc1)C(=O)O)OCc1ccccc1 [CBZ-L-Phenylalanine, N-α-CBZ-L-phenylalanine]",100,deprotection of the substrate [2]: complete deprotection; % Conversion [3]: 100%; % Conversion (CBZ-deprotecting enzyme): 100%
"NCCCC[C@H](NC(=O)OCc1ccccc1)C(=O)O [N-α-CBZ-L-Lysine, N-α-CBZ-L-lysine]",52,–
CC(C)C[C@@H](NC(=O)OCc1ccccc1)C(=O)O [N-α-CBZ-D-Leucine],1.2,–
O=C(N[C@H](Cc1ccc(O)cc1)C(=O)O)OCc1ccccc1 [N-α-CBZ-D-tyrosine],1.58,–
O=C(N[C@H](Cc1ccccc1)C(=O)O)OCc1ccccc1 [N-α-CBZ-D-phenylalanine],0,–
O=C(N[C@@H](Cc1ccc(O)cc1)C(=O)O)OCc1ccccc1 [N-α-CBZ-L-tyrosine],100,–
"COC(=O)[C@@H]1CCC[C@@H]2SCC[C@H](NC(=O)OCc3ccccc3)C(=O)N21 [Compound A, [4S-(4α,7α, 10aβ)]-Octahydro-5-oxo-4-[[(phenylmethoxy)carbonyl]amino]-7H-pyrido-[2,1-b] [1,3]thiazepine-7-carboxylic acid, methyl ester]",95,% Conversion [3]: 100%; % Conversion (CBZ-deprotecting enzyme): 100%
N[C@H](CCCCNC(=O)OCc1ccccc1)C(=O)O [N-ε-CBZ-D-Lysine],7,–
O=C(O)[C@H]1CCCN1C(=O)OCc1ccccc1 [N-α-CBZ-D-Proline],0,–
O-α-CBZ-L-tyrosine,100,–
O=C(O)[C@@H]1CCCN1C(=O)OCc1ccccc1 [N-α-CBZ-L-Proline],100,–
O=C(NCCCC[C@H](NC(=O)OCc1ccccc1)C(=O)O)OCc1ccccc1 [N-α-ε-(CBZ)2-L-Lysine],24,–
CC(C)C[C@H](NC(=O)OCc1ccccc1)C(=O)O [N-α-CBZ-L-Leucine],100,–
B1,–,"specific activity (CBZ-deprotecting enzyme; purified enzyme after S-200 gel filtration, CBZ-L-phenylalanine as substrate): 13.9 units/mg protein"
